biological target: T1, wildtype HIV-1 protease (Human immunodeficiency virus type 1 group M subtype B, UniProt P04585); test: Assay for inhibition of microbial expressed HIV protease (Pepcleav); assay type: biochemical; conditions: wild type HIV-1 protease 20 pM, peptide substrate 400 micromolar, pH 5.5; mean of at least two independent experiments
T1 construct: preincubated with the HIV-1 protease (wild type) enzyme in assay buffer; made in house; host or cells: Escherichia coli
Method: Assay for Inhibition of Microbial Expressed HIV Protease (“Pepcleav”)
Studies of the inhibition of the wildtype HIV-1 protease (which was expressed in Escherichia coli) were carried out with a peptide substrate [Val-Ser-Gln-Asn-(βnaphtyl)Ala-Pro-Ile-Val (SEQ ID NO 1)]. The inhibitor was first preincubated with the HIV-1 protease (wild type) enzyme in assay buffer (50 mM sodium acetate, pH 5.5, 100 mM NaCl, and 0.1% BSA) for 30 minutes at room temperature. Substrate was added to 400 micromolar in a total volume of 20 microliters containing 20 picomolar HIV-1 protease (final) and the reaction is incubated for 1 hour at 30° C. The reaction was quenched with the addition of formic acid and indinavir to 0.012% and 150 nM final concentrations, respectively. Product formation was determined after separation of product and substrate on a Zorbax Eclipse XDB-C18 column connected to an API 4000 mass spectrometer (Applied Biosystems) with multiple reaction monitoring (transitions were 644.5/428.9 and 615.4/422.2 (M1/M3) for product and indinavir respectively). The extent of inhibition of the reaction was determined from the peak area of the products.

SMILES	IC50
COC(=O)N[C@H](C(=O)Nn1c(CC[C@@H]2CNC[C@@H](COc3ccc(C#N)cc3)O2)cccc1=O)C(c1ccccc1)c1ccccc1 [Example 90, N-[6-(2-{(2R,6S)-6-[(4-cyanophenoxy)methyl]morpholin-2-yl}ethyl)-2-oxopyridin-1 (2H)-yl]-Nα-(methoxycarbonyl)-β-phenyl-L-phenylalaninamide]	53.3 nM
COC(=O)N[C@H](C(=O)Nc1ccccc1CCC1CNC[C@@H](CS(=O)(=O)c2ccc3ccccc3c2)O1)C(c1ccccc1)c1ccccc1 (stereo partly drawn) [Example 4, methyl N-[(1S)-1-benzhydryl-2-[[2-[2-[(6S)-6-(2-naphthylsulfonylmethyl)morpholin-2-yl]ethyl]phenyl]amino]-2-oxo-ethyl]carbamate]	62 nM
COC(=O)N[C@H](C(=O)Nc1ccccc1CC[C@@H]1CNC[C@@H](COc2ccc(S(C)(=O)=O)cc2)O1)C(c1ccccc1)c1ccccc1 [Example 16, methyl N-[(1S)-1-benzhydryl-2-[[2-[2-[(2R,6S)-6-[(4-methylsulfonylphenoxy)methyl]morpholin-2-yl]ethyl]phenyl]amino]-2-oxo-ethyl]carbamate]	19 nM
COC(=O)N[C@H](C(=O)Nc1ccccc1CC[C@@H]1CNC[C@@H](COc2ccc(-n3ccnc3)cc2)O1)C(c1ccccc1)c1ccccc1 [Example 108, N-(2-{2-[(2R,6S)-6-{[4-(1H-imidazol-1-yl)phenoxy]methyl}morpholin-2-yl]ethyl}phenyl)-Nα-(methoxycarbonyl)-β-phenyl-L-phenylalaninamide]	37 nM
C#C[C@@H]1CNC[C@@H](CCc2ccccc2NC(=O)[C@@H](NC(=O)OC)C(c2ccccc2)c2ccccc2)O1 [Example 111, N-(2-{2-[(2R,6R)-6-ethynylmorpholin-2-yl]ethyl}phenyl)-Nα-(methoxycarbonyl)-β-phenyl-L-phenylalaninamide]	580 nM
COC(=O)N[C@H](C(=O)Nc1n[nH]cc1CC[C@@H]1CNC[C@@H](COc2ccc(S(C)(=O)=O)cc2)O1)C(c1ccccc1)c1ccccc1 [Example 115, Nα-(methoxycarbonyl)-N-(4-{2-[(2R,6S)-6-{[4-(methylsulfonyl)phenoxy]methyl}morpholin-2-yl]ethyl}-1H-pyrazol-3-yl)-β-phenyl-L-phenylalaninamide]	370 nM
COC(=O)N[C@H](C(=O)Nc1ccccc1CC[C@@H]1CNC[C@@H](COc2ccc(C#N)cc2)O1)C(c1ccccc1)c1ccccc1 [Example 17, methyl N-[(1S)-1-benzhydryl-2-[[2-[2-[(2R,6S)-6-[(4-cyanophenoxy)methyl]morpholin-2-yl]ethyl]phenyl]amino]-2-oxo-ethyl]carbamate]	21 nM
COC(=O)N[C@H](C(=O)Nc1ccccc1CC[C@@H]1CNC[C@@H](CCOc2ccc(C#N)cc2)O1)C(c1ccccc1)c1ccccc1 [Example 64, N-[2-(2-{(2R,6R)-6-[2-(4-cyanophenoxy)ethyl]morpholin-2-yl}ethyl)phenyl]-Nα-(methoxycarbonyl)-β-phenyl-L-phenylalaninamide]	28 nM
CC(C)COC[C@@H]1CNC[C@@H](CCc2c(F)cncc2NC(=O)[C@@H](N)C(c2ccc(F)cc2)c2ccc(F)cc2)O1 [Example 132, 4-fluoro-N-[5-fluoro-4-(2-{(2R,6S)-6-[(2-methylpropoxy)methyl]morpholin-2-yl}ethyl)pyridin-3-yl]-β-(4-fluorophenyl)-L-phenylalaninamide]	430 nM
COC(=O)N[C@H](C(=O)Nc1ccccc1CCC1CNC[C@@H](COc2ccccc2-c2cc[nH]n2)O1)C(c1ccccc1)c1ccccc1 (stereo in doubt) [Example 110, Nα-(methoxycarbonyl)-β-phenyl-N-(2-{2-[(2R,6S)-6-{[2-(1H-pyrazol-3-yl)phenoxy]methyl}morpholin-2-yl]ethyl}phenyl)-L-phenylalaninamide]	250 nM
N[C@H](C(=O)Nc1cncc(F)c1CC[C@@H]1CNC[C@@H](CSc2ccc(Cl)cc2)O1)C(c1ccc(F)cc1)c1ccc(F)cc1 [Example 104, (S)-2-amino-N-(4-(2-((2R,6S)-6-(((4-chlorophenyl)thio)methyl)morpholin-2-yl)ethyl)-5-fluoropyridin-3-yl)-3,3-bis(4-fluorophenyl)propanamide]	0.28 nM
N[C@H](C(=O)Nc1cncc(F)c1CC[C@@H]1CNC[C@@H](COC(=O)NCC(F)(F)F)O1)C(c1ccc(F)cc1)c1ccc(F)cc1 [Example 123, 4-fluoro-β-(4-fluorophenyl)-N-(5-fluoro-4-{2-[(2R,6S)-6-({[(2,2,2-trifluoroethyl)carbamoyl]oxy}methyl)morpholin-2-yl]ethyl}pyridin-3-yl)-L-phenylalaninamide]	16 nM
N[C@@H](C(=O)Nc1cncc(F)c1CC[C@@H]1CNC[C@@H](CSc2ccc(Cl)cc2)O1)C(c1ccc(F)cc1)c1ccc(F)cc1 [Example 122, N-(4-{2-[(2R,6S)-6-{[(4-chlorophenyl)sulfanyl]methyl}morpholin-2-yl]ethyl}-5-fluoropyridin-3-yl)-4-fluoro-β-(4-fluorophenyl)-D-phenylalaninamide]	9 nM
COC(=O)N[C@H](C(=O)Nc1ccccc1CC[C@@H]1CNC[C@@H](COc2cccc(F)c2)O1)C(c1ccccc1)c1ccccc1 [Example 47, N-[2-(2-{(2R,6S)-6-[(3-fluorophenoxy)methyl]morpholin-2-yl}ethyl)phenyl]-Nα-(methoxycarbonyl)-β-phenyl-L-phenylalaninamide]	12 nM
COC(=O)N[C@H](C(=O)Nc1ccccc1CC[C@@H]1CNC[C@@H](/C=C/c2ccc(S(C)(=O)=O)cc2)O1)C(c1ccccc1)c1ccccc1 [Example 61, N-α-(methoxycarbonyl)-N-(2-{2-[(2R,6R)-6-{(E)-2-[4-(methylsulfonyl)phenyl]ethenyl}morpholin-2-yl]ethyl}phenyl)-β-phenyl-L-phenylalaninamide]	5.9 nM
N[C@H](C(=O)Nc1cncc(F)c1CC[C@@H]1CNC[C@@H](COC(=O)NCc2ccc(F)cc2)O1)C(c1ccc(F)cc1)c1ccc(F)cc1 [Example 125, 4-fluoro-N-(5-fluoro-4-{2-[(2R,6S)-6-({[(4-fluorobenzyl)carbamoyl]oxy}methyl)morpholin-2-yl]ethyl}pyridin-3-yl)-β-(4-fluorophenyl)-L-phenylalaninamide]	15 nM
COC(=O)N[C@H](C(=O)Nc1cccnc1CC[C@@H]1CNC[C@@H](COc2cccc(C#N)c2)O1)C(c1ccccc1)c1ccccc1 [Example 113, N-[2-(2-{(2R,6S)-6-[(3-cyanophenoxy)methyl]morpholin-2-yl}ethyl)pyridin-3-yl]-Nα-(methoxycarbonyl)-β-phenyl-L-phenylalaninamide]	510 nM
COC(=O)N[C@H](C(=O)NCCCC1CNC[C@@H](CSc2ccc(Cl)cc2)O1)C(c1ccccc1)c1ccccc1 (stereo partly drawn) [Example 2, methyl N-[(1S)-1-benzhydryl-2-[3-[(6S)-6-[(4-chlorophenyl)sulfanylmethyl]morpholin-2-yl]propylamino]-2-oxo-ethyl]carbamate]	300 nM
COC(=O)N[C@H](C(=O)Nc1ccccc1CC[C@@H]1CNC[C@@H](CSc2ccc(Cl)cc2)O1)C(c1ccccc1)c1ccccc1 [Example 7, methyl N-[(1S)-1-benzhydryl-2-[[2-[2-[(2R,6S)-6-[(4-chlorophenyl)sulfanylmethyl]morpholin-2-yl]ethyl]phenyl]amino]-2-oxo-ethyl]carbamate]	2 nM
COC(=O)N[C@H](C(=O)Nc1ccccc1CC[C@@H]1CNC[C@@H](CSc2ccc(Cl)cc2)O1)[C@H](c1ccccc1)c1ccncc1 [Example 69, (βR)-N-(2-{2-[(2R,6S)-6-{[(4-chlorophenyl)sulfanyl]methyl}morpholin-2-yl]ethyl}phenyl)-Nα-(methoxycarbonyl)-β-pyridin-4-yl-L-phenylalaninamide]	0.3 nM
COC(=O)N[C@H](C(=O)Nc1nccnc1CC[C@@H]1CNC[C@@H](COc2ccc(C#N)cc2)O1)C(c1ccccc1)c1ccccc1 [Example 84, methyl N-[(1S)-1-benzhydryl-2-[[3-[2-[(2R,6S)-6-[(4-cyanophenoxy)methyl]morpholin-2-yl]ethyl]pyrazin-2-yl]amino]-2-oxo-ethyl]carbamate]	430 nM
COC(=O)N[C@H](C(=O)Nc1ccc(F)cc1CC[C@@H]1CNC[C@@H](COc2ccc(C#N)cc2)O1)C(c1ccccc1)c1ccccc1 [Example 75, N-[2-(2-{(2R,6S)-6-[(4-cyanophenoxy)methyl]morpholin-2-yl}ethyl)-4-fluorophenyl]-Nα-(methoxycarbonyl)-β-phenyl-L-phenylalaninamide]	46 nM
COC(=O)N[C@H](C(=O)Nc1ccccc1CCC1CNC[C@@H](CSc2ccc(Cl)cc2)O1)C(c1ccccc1)c1ccccc1 (stereo partly drawn) [Example 6, methyl N-[(1S)-1-benzhydryl-2-[[2-[2-[(6S)-6-[(4-chlorophenyl)sulfanylmethyl]morpholin-2-yl]ethyl]phenyl]amino]-2-oxo-ethyl]carbamate]	1.9 nM
COC(=O)N[C@H](C(=O)Nc1ccccc1CC[C@@H]1CNC[C@@H](COc2ccc(Cc3ccccc3)cc2)O1)C(c1ccccc1)c1ccccc1 [Example 12, methyl N-[(1S)-1-benzhydryl-2-[[2-[2-[(2R,6S)-6-[(4-benzylphenoxy)methyl]morpholin-2-yl]ethyl]phenyl]amino]-2-oxo-ethyl]carbamate]	24 nM
